These results are taken from patent publication US20240287138A1, “CYCLIC PEPTIDES FOR INHIBITING TNF RECEPTOR 1 ACTIVITY” (Merck Sharp & Dohme LLC, priority 2023, published 2024).

Numbered stars: 1 amine (or outer) side, 2 acyl side, 3 side chain; on linkers, the order of the positions; unused ones are H or OH. Bridge positions count the residues as written; N and C are the ends. Square brackets hold non-standard residues; d marks the D form. Peptide text beside a SMILES is read from it. Trp(βS-Me,7-OMe) = COc1cccc2c([C@H](C)[C@H](N)C(=O)O)c[nH]c12; dPro(trans-4-NMe2) = CN(C)[C@@H]1CN[C@@H](C(=O)O)C1; Trp(7-CN) = N#Cc1cccc2c(C[C@H](N)C(=O)O)c[nH]c12; Trp(7-Cl) = N[C@@H](Cc1c[nH]c2c(Cl)cccc12)C(=O)O; X15 = C[C@H](c1ccc(O)cc1)[C@H](N[*:1])C(=O)[*:2]; Phe(3-CONH2) = NC(=O)c1cccc(C[C@H](N)C(=O)O)c1; Phe(4-CONH2) = NC(=O)c1ccc(C[C@H](N)C(=O)O)cc1; Phe(4-COOH) = N[C@@H](Cc1ccc(C(=O)O)cc1)C(=O)O; Trp(7-aza) = N[C@@H](Cc1c[nH]c2ncccc12)C(=O)O; Pip(5R-OH) = O=C(O)[C@@H]1CC[C@@H](O)CN1; X1 = O=C([C@@H]1CC[C@H](N[*:1])C1)[*:2]; dPro(4,4-F2) = O=C(O)[C@H]1CC(F)(F)CN1; Pip(4-aza) = O=C(O)[C@@H]1CNCCN1; 4Pal = N[C@@H](Cc1ccncc1)C(=O)O; NMeE = CN[C@@H](CCC(=O)O)C(=O)O; dHyp = O=C(O)[C@H]1C[C@H](O)CN1; Ahp(2) = CCCCC[C@H](N)C(=O)O; αMeS = C[C@](N)(CO)C(=O)O; Nle = CCCC[C@H](N)C(=O)O; Sar = CNCC(=O)O

Experiment [1] concerns the target T1, human soluble TNFR1 (sTNFR1) (Homo sapiens, UniProt P19438).
T1 construct: made in house; host or cells: Sf21 (baculovirus)
T1 sequence (P19438 with tags, fused parts or gaps): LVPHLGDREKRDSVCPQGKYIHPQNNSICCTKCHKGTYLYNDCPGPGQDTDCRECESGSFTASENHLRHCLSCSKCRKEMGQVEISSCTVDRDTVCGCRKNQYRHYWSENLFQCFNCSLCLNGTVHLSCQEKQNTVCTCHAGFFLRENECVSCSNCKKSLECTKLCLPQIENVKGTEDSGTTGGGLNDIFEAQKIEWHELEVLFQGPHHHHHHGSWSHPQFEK
Briefly: Human sTNFR1-peptide displacement assay (LanthaScreen Eu TR-FRET binding assay). In a few lines: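 Readout is the 665/615 nm TR-FRET ratio (Eu anti-His donor, streptavidin-Alexa647 acceptor), normalized to DMSO and saturating displacer, fit by Morrison-based five-parameter logistic for Kd^app. His-tagged sTNFR1 (1-211) prebound to 100 nM biotinylated peptide SEQ ID NO.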
(In general: TR-FRET usually uses a lanthanide donor and a delayed reading to cut background.)

Experiment [2] has as its target T2, human TNFR1 extracellular domain (ECD) protein (Homo sapiens, UniProt P19438).
T2 construct: HRV 3C protease cleavage site (C); 6His (C, cleaved yes); made in house; host or cells: Sf21 insect cells (baculovirus), secreted
T2 sequence (P19438 30-211): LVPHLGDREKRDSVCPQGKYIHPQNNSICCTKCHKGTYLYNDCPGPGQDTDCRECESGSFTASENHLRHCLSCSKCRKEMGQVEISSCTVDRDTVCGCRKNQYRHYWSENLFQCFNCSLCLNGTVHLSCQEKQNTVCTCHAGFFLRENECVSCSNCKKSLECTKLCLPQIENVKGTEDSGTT
Briefly: SPR binding affinity to captured human TNFR1 ECD. In a few lines:
(§1)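 Peptide binding kinetics read by SPR in HEPES pH 7.4 running buffer with 2% DMSO, with TNFR2 ECD tested in parallel for off-target binding. Receptor ECDs, insect-cell expressed and biotinylated at C-terminal avi-tag, were captured via streptavidin. KA derived from association and dissociation rate constants.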
(In general: SPR reads the build-up and loss of mass on a sensor chip optically.)

The target in another experiment is T3, human TNFR2 ECD protein (Homo sapiens, UniProt P20333).
T3 construct: HRV 3C protease cleavage site (C); 6His (C, cleaved yes); made in house; host or cells: Sf21 insect cells (baculovirus), secreted
T3 sequence (P20333 23-257): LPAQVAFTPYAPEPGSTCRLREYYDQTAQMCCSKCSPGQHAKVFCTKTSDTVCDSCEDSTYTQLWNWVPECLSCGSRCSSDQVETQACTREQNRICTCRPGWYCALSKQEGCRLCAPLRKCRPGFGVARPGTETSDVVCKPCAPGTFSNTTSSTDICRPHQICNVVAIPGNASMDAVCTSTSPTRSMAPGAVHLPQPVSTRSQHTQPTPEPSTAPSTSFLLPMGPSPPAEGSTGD
Briefly: SPR off-target binding (selectivity) to human TNFR2 ECD. In a few lines:
as §1

`CCCC[C@@H]1NC(=O)[C@@H]2CC[C@@H](C2)NC(=O)[C@H]([C@@H](C)c2c[nH]c3c(OC)cccc23)NC(=O)CN(C)C(=O)[C@H](Cc2ccc(C(N)=O)cc2)NC(=O)[C@H](Cc2ccc(C(N)=O)cc2)NC(=O)[C@](C)(CO)NC(=O)[C@H](Cc2c[nH]c3c(C#N)cccc23)NC(=O)[C@H](Cc2ccc(C(=O)O)cc2)NC(=O)[C@H](CC(N)=O)NC(=O)[C@H]2C[C@H](OC)CN2C(=O)[C@H](Cc2c[nH]c3ccccc23)NC(=O)[C@@H]2CC[C@@H](O)CN2C(=O)[C@H](Cc2ccncc2)NC1=O` [SEQ ID NO. 14] (cyclo([4Pal][Pip(5R-OH)]W[dHyp](Me)N[Phe(4-COOH)][Trp(7-CN)][αMeS][Phe(4-CONH2)][Phe(4-CONH2)][Sar][Trp(βS-Me,7-OMe)][X1][Nle])): the Kd (in general, the equilibrium constant for the complex coming apart) in experiment [1] was 0.03 nM; in experiment [2], 0.02 nM; on human TNFR2 ECD protein, greater than 1000 nM.
As to `CCCC[C@@H]1NC(=O)[C@@H]2CC[C@@H](C2)NC(=O)[C@H]([C@@H](C)c2c[nH]c3c(OC)cccc23)NC(=O)CN(C)C(=O)[C@H](Cc2ccc(O)cc2)NC(=O)[C@H](Cc2ccc(C(=O)O)cc2)NC(=O)[C@](C)(CO)NC(=O)[C@H](Cc2c[nH]c3c(Cl)cccc23)NC(=O)[C@H](Cc2ccncc2)NC(=O)[C@H](CC(N)=O)NC(=O)[C@H](CCC(=O)O)N(C)C(=O)[C@H](Cc2c[nH]c3c(Cl)cccc23)NC(=O)[C@@H]2CNCCN2C(=O)[C@H](Cc2ccncc2)NC1=O` [SEQ ID NO. 262] (cyclo([4Pal][Trp(7-Cl)][αMeS][Phe(4-COOH)]Y[Sar][Trp(βS-Me,7-OMe)][X1][Nle][4Pal][Pip(4-aza)][Trp(7-Cl)][NMeE]N)), the Kd in experiment [1] is 0.39 nM; in experiment [2], 0.24 nM; on human TNFR2 ECD protein, greater than 1000 nM.
Turning to `CCCC[C@@H]1NC(=O)CSC[C@@H](C(N)=O)NC(=O)[C@H]([C@@H](C)c2c[nH]c3c(OC)cccc23)NC(=O)CN(C)C(=O)[C@H](Cc2ccc(O)cc2)NC(=O)[C@H](Cc2ccc(C(=O)O)cc2)NC(=O)[C@](C)(CO)NC(=O)[C@H](Cc2c[nH]c3c(Cl)cccc23)NC(=O)[C@H](Cc2ccncc2)NC(=O)[C@H](CC(N)=O)NC(=O)[C@H](CCC(=O)O)N(C)C(=O)[C@H](Cc2c[nH]c3ncccc23)NC(=O)[C@H](CO)NC(=O)[C@H]([C@H](C)c2ccc(O)cc2)NC1=O` [SEQ ID NO. 243] ({CH2CO}-[Nle][X15]S[Trp(7-aza)][NMeE]N[4Pal][Trp(7-Cl)][αMeS][Phe(4-COOH)]Y[Sar][Trp(βS-Me,7-OMe)]C-NH2; thioether N-14), the dissociation constant Kd in experiment [1] is 0.49 nM; in experiment [2], 0.06 nM; at human TNFR2 ECD protein, greater than 1000 nM.
In the case of `CCCCC[C@@H]1NC(=O)[C@@H]2CC[C@@H](C2)NC(=O)[C@H]([C@@H](C)c2c[nH]c3c(OC)cccc23)NC(=O)CN(C)C(=O)[C@H](Cc2cccc(C(N)=O)c2)NC(=O)[C@H](Cc2ccc(C(N)=O)cc2)NC(=O)[C@](C)(CO)NC(=O)[C@H](Cc2c[nH]c3c(C#N)cccc23)NC(=O)[C@H](Cc2ccc(C(=O)O)cc2)NC(=O)[C@H](CC(N)=O)NC(=O)[C@H]2C[C@H](N(C)C)CN2C(=O)[C@H](Cc2c[nH]c3ccccc23)NC(=O)[C@@H]2CC[C@@H](O)CN2C(=O)[C@H](Cc2ccncc2)NC1=O` [SEQ ID NO. 128] (cyclo([4Pal][Pip(5R-OH)]W[dPro(trans-4-NMe2)]N[Phe(4-COOH)][Trp(7-CN)][αMeS][Phe(4-CONH2)][Phe(3-CONH2)][Sar][Trp(βS-Me,7-OMe)][X1][Ahp(2)])), the results for the dissociation constant Kd (in experiment [1]; in experiment [2]; at human TNFR2 ECD protein) were 0.09 nM, 0.02 nM and greater than 1000 nM, respectively.
With `CCCC[C@@H]1NC(=O)[C@@H]2CC[C@@H](C2)NC(=O)[C@H]([C@@H](C)c2c[nH]c3c(OC)cccc23)NC(=O)CN(C)C(=O)[C@H](Cc2ccc(O)cc2)NC(=O)[C@H](Cc2ccc(C(=O)O)cc2)NC(=O)[C@](C)(CO)NC(=O)[C@H](Cc2c[nH]c3c(Cl)cccc23)NC(=O)[C@H](Cc2ccncc2)NC(=O)[C@H](CC(N)=O)NC(=O)[C@H]2CC(F)(F)CN2C(=O)[C@H](Cc2c[nH]c3ccccc23)NC(=O)[C@@H]2CNCCN2C(=O)[C@H](Cc2ccncc2)NC1=O` [SEQ ID NO. 266] (cyclo([4Pal][Trp(7-Cl)][αMeS][Phe(4-COOH)]Y[Sar][Trp(βS-Me,7-OMe)][X1][Nle][4Pal][Pip(4-aza)]W[dPro(4,4-F2)]N)), the values for the dissociation constant (Kd) (in experiment [1]; in experiment [2]; on human TNFR2 ECD protein) were 0.45 nM, 0.06 nM and greater than 1000 nM, respectively.
